Key:
Test in all cases: Serum ELISA after dietary supplementation
Format in all cases: in vivo, Gallus gallus domesticus
Interleukin-10 = conditions: rEP-supplemented group, 35 days, compared to control group (P = 0.0341), not different than the antibiotic group
Excerpt: (§1) A total of 189 male or female 2-day-old G. g. domesticus were randomly assigned to seven dietary treatment groups, including rEP (0.75, 1.5, 3.0, 6.0 and 12%), spiraline-A (Juily Pharmaceutical Co., LTD. San Sia, Taipei Hsien, Taiwan), and basal diet groups. Each treatment group consisted of one cage with twenty-seven G. g. domesticus. The composition of the fodder is presented in S1b–S1d Table. The animals were allowed ad libitum access to fodder and water for the duration of the trial, beginning from 3 days of age. The total time of feeding was 35 days. The G. g. domesticus were maintained in a cage (animal container) with a constant environment (28.9–37.8°C, 12/12 h light-dark cycle). rEP fodder and fecal sewage were not directly discharged to the outside.
(§2) Body weight and survival rate were monitored daily during the experimental period. The weight gain, feed efficiency (FE), protein efficiency ratio (PER), and survival percentage were calculated. After 35 days of treatment, the G. g. domesticus were euthanized, blood samples were collected and serum was obtained by centrifugation (3000 ×g for 15 min at 4°C). Serum was kept at -80°C until analysis. Enzyme-linked immunosorbent assay (ELISA) was performed in accordance with the manufacturer’s standard procedures to determine the levels of immunological factors, including TNF-α, Interleukin-1β, Interleukin-6, Interleukin-10, Lysozyme, Immunoglobin-G (IgG), and Interferon-γ. Chicken serum samples were analyzed with ELISA kits from ABclonal Inc. (Woburn, MA, USA). After the reaction was completed, the optical density (OD) was measured at 450 nm on a microplate reader (SpectraMax® i3, Molecular Devices, Lagerhausstrasse, Wals, Austria).

Interleukin-6 = conditions: dietary supplementation 35 days, between groups
Excerpt: as §1, §2

TNF-α = conditions: dietary supplementation 35 days, between groups
Excerpt: as §1, §2

Interleukin-1β = conditions: dietary supplementation 35 days, between groups
Excerpt: as §1, §2

Interferon-γ = conditions: 1.5% in diet, 35 days, compared to antibiotic group (P = 0.0043) and control group (P = 0.0073)
Excerpt: as §1, §2

Lysozyme = conditions: dietary supplementation 35 days, between groups
Excerpt: as §1, §2

## EFFIFHIIKGLFHAGRMIHGLVNRRRHRHHHHHH [rEP, recombinant His-tagged Epinephelus lanceolatus piscidin from Pichia pastoris, used as crude culture supernatant or spray-dried powder]
Interleukin-10
  Serum IL-10 level: significantly higher
Interleukin-6
  Serum IL-6 level: No significant changes
TNF-α
  Serum TNF-α level: No significant changes
Interleukin-1β
  Serum IL-1β level: No significant changes
Interferon-γ
  Serum IFN-γ level: significantly increased
Lysozyme
  Serum Lysozyme (Lyz) level: No significant changes

Source: article PMC7065771, “Dietary supplementation of recombinant antimicrobial peptide Epinephelus lanceolatus piscidin improves growth performance and immune response in Gallus gallus domesticus” (PLoS ONE, 2020)
